Results from publication PMC10313368 (The Journal of Clinical Investigation, 2023).
pIC50: −log10 of the molar value. Values joined by “and” are separate entries in the source; they are usually repeats but may differ in a detail not shown here. Equal entries are not always repeated.

Experiments:
C57BL/6 mice = assay: Flash scotopic ERG after a single intraocular injection; format: in vivo, mouse; conditions: for A wave / B wave: in µV (unit assumed)
Description: Intraocular injections. Intravitreal injections were performed with a PLI-100A Pico-liter Microinjector (Warner Instruments, Harvard Bioscience) using pulled-glass micropipettes. Each micropipette was calibrated to deliver a 1 μl volume on depression of a foot switch. […]
Flash scotopic ERGs. All procedures were performed under dim red light. Mice were dark adapted overnight, anesthetized with ketamine (50 mg/kg) and xylazine (5mg/kg) and pupils were dilated with a topical drop of tropicamide (1%). Scotopic ERG responses were measured using the Celeris ERG stimulator (Diagnosys, Lowell, MA) at flash intensities of 0.025, 0.25, 2.5, 7.96, and 79.06 cd/s/m2. ERGs were measured simultaneously from both eyes with a ground electrode placed into the forehead between the eyes and a reference electrode into the hip. […]

BL/6 mice = assay: Fundus photos and fluorescein angiography after systemic (i.p.) administration; format: in vivo, mouse; conditions: adult mice, 1 month following 5 consecutive i.p. injections of 40 or 80 mg/kg
Description: protocol, the sections were rinsed three times with PBS for 2 minutes. Images were captured at high magnification (20X) with Zeiss fluorescent microscope.
Flash scotopic ERGs. All procedures were performed under dim red light. Mice were dark adapted overnight, anesthetized with ketamine (50 mg/kg) and xylazine (5mg/kg) and pupils were dilated with a topical drop of tropicamide (1%). Scotopic ERG responses were measured using the Celeris ERG stimulator (Diagnosys, Lowell, MA) at flash intensities of 0.025, 0.25, 2.5, 7.96, and 79.06 cd/s/m2. ERGs were measured simultaneously from both eyes with a ground electrode placed into the forehead between the eyes and a reference electrode into the hip.
Fluorescein angiography in mice. […]
vascular permeability, experimental animals were treated with 5 consecutive daily IP injections […]
On day 30, mice were anesthetized using intramuscular injection with ketamine (50 mg/kg) and xylazine (5mg/kg). […] Fluorescein leakage manifests as indistinct vascular borders progressing to diffusely hazy fluorescence. Fluorescein leakage was compared between different groups by quantifying the fluorescence intensities collected after 1-, 2-, and 3-minutes following fluorescein injection using the ImageJ software.

[1] = system: HIF transcriptional activity; conditions: cell-based reporter assay; read-out: IC50, inhibition of HIF transcriptional activity; cited from earlier work
[2] = system: hiPSC-derived 3D retinal organoids; assay: qPCR of VEGF and ANGPTL4 mRNA in D120 hiPSC-derived retinal organoids in 1% O2; format: cell-based, human; conditions: for Vegfa mRNA / Angptl4 mRNA: 12 hours, 20% O2 about 1, replicates; for Vegfa mRNA: Figure 9F; for Angptl4 mRNA: Figure 9G
Description: An hiPSC line derived from CD34^+ cord blood was used in this study (A18945, Thermo Fisher Scientific) ([70]). Undifferentiated hiPSCs and derived retinal organoids were routinely tested for mycoplasma contamination by PCR. Cell culture, retinal differentiation, and organoid formation were conducted as previously described ([71]). Retinal organoids at D120 were used for experiments. […]
(§1) Reverse transcription and quantitative real-time PCR. Total RNA was isolated from cultured cells or retinas with PureLinkTM RNA Mini Kit (Invitrogen #12183025), and cDNA was prepared with MuLV Reverse Transcriptase (Applied Biosystems). Quantitative real-time PCR was performed with Power SYBR Green PCR Master Mix (Applied Biosystems) and MyiQ Real-Time PCR Detection System (Bio-Rad). Normalization was done using cyclophilin A for mouse tissue and human cell lines. Primers are listed in Supplemental Table 2. […]

HUVECs = assay: qPCR of VEGF, ANGPTL4, ANGPT2, PTPRB, SERPINE1 mRNA in hypoxic HUVECs; format: cell-based, human; conditions: for Angptl4 mRNA / Vegfa mRNA: HUVEC 16HRS, Figure 8D; for Angptl4 mRNA / Vegfa mRNA / Angpt2 mRNA / Ptprb mRNA / Serpine1 mRNA: replicates; for Angpt2 mRNA / Ptprb mRNA / Serpine1 mRNA: HUVEC, Figure 8E
Description: MIO-M1, HUVECs, and ARPE19 cells were cultured in DMEM with 10% (vol/vol) FBS (Quality Biological) and 1% penicillin/streptomycin (Cellgro). A hypoxic chamber (Coy Laboratory Product Inc.; Two Glove Model) with 5% CO2, 94% N2, and 1% O2 gas concentration at 37°C was used to culture hypoxic cells. The control cells were cultured in an incubator maintained at 37°C, with 21% O2 and 5% CO2. […] Aflibercept was obtained from the Johns Hopkins University Pharmacy. […]
as §1

[3] = HUVECs, hypoxia 16 hours, 32-134D 10 μM

Brc1ccc2c(-c3csc(-c4c[nH]c5c(Br)cccc45)n3)c[nH]c2c1 [32-134D, 4-(6-bromo-1H-indol-3-yl)-2-(7-bromo-1H-indol-3-yl)thiazole]
retinal toxicity on ERG (C57BL/6 mice; 32-134D 70, 140, 210, 350 ng single intraocular injection, up to 5 weeks): did not observe any evidence of retina toxicity | A wave (C57BL/6 mice; DAY7, flash 0.25, 140NG): 84.49 and 88.87 | A wave (C57BL/6 mice; DAY7, flash 2.5, 140NG): 138.4 and 109.3 | A wave (C57BL/6 mice; DAY7, flash 7.96, 140NG): 181.6 and 123.7 | B wave (C57BL/6 mice; DAY7, flash 7.96, 140NG): 337.9 | B wave (C57BL/6 mice; DAY7, flash 79.06, 140NG): 327.7 | B wave (C57BL/6 mice; DAY14, flash 0.025, 70NG): 149.2 and 168.6 and 209.2 and 152.4 and 190.2 and 184.53 and 268.4 | B wave (C57BL/6 mice; DAY14, flash 0.025, 140NG): 158.1 | A wave (C57BL/6 mice; DAY14, flash 0.25, 70NG): 69.71 and 75.03 and 99.56 and 75.32 and 55.14 and 80.45 and 95.29 | B wave (C57BL/6 mice; DAY14, flash 0.25, 70NG): 204.5 and 293.7 and 273.9 and 206.4 and 256.8 and 214.7 and 313 | A wave (C57BL/6 mice; DAY14, flash 0.25, 140NG): 76.62 and 123.2 | B wave (C57BL/6 mice; DAY14, flash 0.25, 140NG): 209.6 | A wave (C57BL/6 mice; DAY14, flash 2.5, 70NG): 116.4 and 108.2 and 136.4 and 117.2 and 152.87 and 100.6 and 158.9 | B wave (C57BL/6 mice; DAY14, flash 2.5, 70NG): 215 and 216 and 281.6 and 293.7 and 254.6 and 294.3 and 388.9 | A wave (C57BL/6 mice; DAY14, flash 2.5, 140NG): 128 and 175.3 | B wave (C57BL/6 mice; DAY14, flash 2.5, 140NG): 257.2 | A wave (C57BL/6 mice; DAY14, flash 7.96, 70NG): 135.7 and 102.5 and 159.1 and 157 and 172.6 and 118.4 and 175.8 | B wave (C57BL/6 mice; DAY14, flash 7.96, 70NG): 256.6 and 296.2 and 276.2 and 330.1 and 232.5 and 333.4 and 391 | A wave (C57BL/6 mice; DAY14, flash 7.96, 140NG): 138.7 and 208.7 | B wave (C57BL/6 mice; DAY14, flash 7.96, 140NG): 262.8 | A wave (C57BL/6 mice; DAY14, flash 79.06, 70NG): 161.6 and 123.9 and 177.3 and 180.4 and 182.2 and 135.3 and 174.3 | B wave (C57BL/6 mice; DAY14, flash 79.06, 70NG): 232.9 and 293.2 and 237.9 and 340.7 and 256.5 and 324.6 and 372.7 | A wave (C57BL/6 mice; DAY14, flash 79.06, 140NG): 168.4 and 191 | B wave (C57BL/6 mice; DAY14, flash 79.06, 140NG): 300.7 | B wave (C57BL/6 mice; DAY21, flash 0.025, 140NG): 129.1 | A wave (C57BL/6 mice; DAY21, flash 0.25, 70NG): 76.13 and 75.12 and 97.06 and 99.13 and 63.13 and 91.99 and 97.31 | B wave (C57BL/6 mice; DAY21, flash 0.25, 70NG): 236.1 and 170.7 and 170.8 and 248.9 and 189.8 and 286.3 and 297.9 | B wave (C57BL/6 mice; DAY21, flash 0.25, 140NG): 175.7 | A wave (C57BL/6 mice; DAY21, flash 2.5, 70NG): 112.6 and 110.6 and 152.6 and 169.8 and 108.4 and 159.7 and 165.1 | B wave (C57BL/6 mice; DAY21, flash 2.5, 70NG): 298.7 and 211.6 and 203 and 296 and 196.2 and 332.2 and 364.3 | A wave (C57BL/6 mice; DAY21, flash 7.96, 70NG): 105.9 and 120.3 and 162.9 and 176.2 and 125.7 and 175.1 and 172 | B wave (C57BL/6 mice; DAY21, flash 7.96, 70NG): 315.1 and 232.4 and 223 and 328.4 and 215.9 and 350.1 and 374.6 | A wave (C57BL/6 mice; DAY21, flash 7.96, 140NG): 126.8 and 195.8 | A wave (C57BL/6 mice; DAY21, flash 79.06, 70NG): 108.1 and 130.3 and 166.3 and 180.2 and 139.8 and 172.8 and 188 | B wave (C57BL/6 mice; DAY21, flash 79.06, 70NG): 286.8 and 226.3 and 206.8 and 273.5 and 273.2 and 297.6 and 298.6 | A wave (C57BL/6 mice; DAY21, flash 79.06, 140NG): 148.7 and 231 | A wave (C57BL/6 mice; DAY28, flash 2.5, 140NG): 148.8 and 128.1 | A wave (C57BL/6 mice; DAY28, flash 7.96, 70NG): 118.7 and 202.6 and 114.3 and 192.2 and 119.5 and 102.4 and 173.1 | A wave (C57BL/6 mice; DAY28, flash 7.96, 140NG): 168.7 | A wave (C57BL/6 mice; DAY28, flash 79.06, 70NG): 125.3 and 187.6 and 118.9 and 161.8 and 121.28 and 110 and 160.6 | A wave (C57BL/6 mice; DAY28, flash 79.06, 140NG): 153 | A wave (C57BL/6 mice; DAY35, flash 2.5, 140NG): 66 | A wave (C57BL/6 mice; DAY35, flash 79.06, 70NG): 74.06 and 95.89 and 102 and 95.42 and 92.65 and 81.18 and 82.72 | B wave (C57BL/6 mice; DAY35, flash 79.06, 70NG): 112.4 and 198.3 and 140.3 and 150.2 and 167.5 and 220.3 and 163 | fundus and fluorescein angiogram (BL/6 mice): normal-appearing fundus without evidence of retinal vascular injury or leakage | pIC50 [1]: > 5.40 | expression of HIF-regulated vasoactive mediators (in words) ([2]; 1% O2 12 hours, 32-134D): effectively prevented | Vegfa mRNA ([2]; 1% O2+32-134D 1μM): 2.046 and 2.085 and 1.848 | Angptl4 mRNA ([2]; 1% O2+32-134D 1μM): 5.344 and 5.73 and 5.861 | Vegfa mRNA ([2]; 1% O2+32-134D 10μM): 0.2069 and 0.1725 and 0.1726 | Angptl4 mRNA ([2]; 1% O2+32-134D 10μM): 0.1373 and 0.1287 and 0.1338 | Angptl4 mRNA (HUVECs; 1% O2+32-134D 1μM): 23.6548 and 19.8329 and 22.215 | Vegfa mRNA (HUVECs; 1% O2+32-134D 1μM): 3.163 and 3.148 and 2.936 | Angptl4 mRNA (HUVECs; 1% O2+32-134D 10μM): 13.1074 and 12.3148 and 11.0174 | Vegfa mRNA (HUVECs; 1% O2+32-134D 10μM): 2.892 and 2.5719 and 2.682 | Angpt2 mRNA (HUVECs; 1% O2+32-134D 1μM): 1.029 and 1.541 and 1.067 | Ptprb mRNA (HUVECs; 1% O2+32-134D 1μM): 1.641 and 1.627 and 1.638 | Serpine1 mRNA (HUVECs; 1% O2+32-134D 1μM): 2.465 and 2.4817 and 2.486 | Angpt2 mRNA (HUVECs; 1% O2+32-134D 10μM): 1.092 and 1.046 and 0.8708 | Ptprb mRNA (HUVECs; 1% O2+32-134D 10μM): 1.169 and 1.1917 and 1.0627 | Serpine1 mRNA (HUVECs; 1% O2+32-134D 10μM): 2.072 and 2.145 and 2.576 | hypoxia-increased ANGPT2 mRNA (in words) (HUVECs; [3]): inhibited | hypoxia-increased PTPRB mRNA (in words) (HUVECs; [3]): inhibited
